We go through one molecule from ChEMBL document CHEMBL5154930, “Design, Synthesis, and Biological Evaluations of DOT1L Peptide Mimetics Targeting the Protein-Protein Interactions between DOT1L and MLL-AF9/MLL-ENL” (J Med Chem, 2022).

The subject of assay [1] is MOLM-13. The experiment in a line: Down regulation of CDK1 gene in human MOLM-13 cells by RNA-sequencing analysis. The format is functional, cell-based.
Assay [2] deals with MOLM-13. The experiment in a line: Down regulation of MEF2C gene in human MOLM-13 cells by RNA-sequencing analysis. The format is functional, cell-based.
Assay [3] concerns MOLM-13. Description: Down regulation of MCM2 gene in human MOLM-13 cells by RNA-sequencing analysis. The format is functional, cell-based.
For assay [4], the system named is MOLM-13. The experiment in a line: Inhibition of methylation of H3K79 in human MOLM-13 cells assessed as inhibition of methylation at HOXA-AS2 gene cluster by chromatin immunoprecipitation assay. Format: functional, cell-based.
Assay [5] deals with MOLM-13. Description: cells. The note with it: Homo sapiens, MOLM-13, 96 h.
Description: Anticancer activity against human MOLM-13 cells harbouring MLL-AF9 assessed as inhibition of cell growth treated for 4 days measured by CCK-8 kit method
Another assay has as its system K562. Description: Anticancer activity against human K562 cells assessed as inhibition of cell growth treated for 8 days measured by CCK-8 kit method. Format: functional, cell-based. The settings on record: K562, 192 h. For orientation: Tetrazolium dyes change colour on reduction, which living cells bring about.
Assay [6] relates to MOLM-13. Description: Induction of apoptosis in human MOLM-13 cells at 0.25 to 1 uM assessed as cleaved Caspase-3 by Annexin V-FITC/PI staining based flow cytometry analysis. The format is functional, cell-based. The note with it: dose 0.25-1 µM.
In assay [7] the test system is MOLM-13. Description: Inhibition of methylation of H3K79 in human MOLM-13 cells assessed as inhibition of methylation at HOXA6 gene cluster by chromatin immunoprecipitation assay. Format: functional, cell-based.
Assay [8] has as its system MOLM-13. The experiment in a line: Induction of apoptosis in human MOLM-13 cells at 0.25 to 1 uM by Annexin V-FITC/PI staining based flow cytometry analysis. The format is functional, cell-based. The settings on record: dose 0.25-1 µM, time 5-9 day, TDE = time-dependent effect.
The target in assay [9] is T1, Protein AF-9 (Homo sapiens) (UniProt P42568).
T1 sequence (whole entry): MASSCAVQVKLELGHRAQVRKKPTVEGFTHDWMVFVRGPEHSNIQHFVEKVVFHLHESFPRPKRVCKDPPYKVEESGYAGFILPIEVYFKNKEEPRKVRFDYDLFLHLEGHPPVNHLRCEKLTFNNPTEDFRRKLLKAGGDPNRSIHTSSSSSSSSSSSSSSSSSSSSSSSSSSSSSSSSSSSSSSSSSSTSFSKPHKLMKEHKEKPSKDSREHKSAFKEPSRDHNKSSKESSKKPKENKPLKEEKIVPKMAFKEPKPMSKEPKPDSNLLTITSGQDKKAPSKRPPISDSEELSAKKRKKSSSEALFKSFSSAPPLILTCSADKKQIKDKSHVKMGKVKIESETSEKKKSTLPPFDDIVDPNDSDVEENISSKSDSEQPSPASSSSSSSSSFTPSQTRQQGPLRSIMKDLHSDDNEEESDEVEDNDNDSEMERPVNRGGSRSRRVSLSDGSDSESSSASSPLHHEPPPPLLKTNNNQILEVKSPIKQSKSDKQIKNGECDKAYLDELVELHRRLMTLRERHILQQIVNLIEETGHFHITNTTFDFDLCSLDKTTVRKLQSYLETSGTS
The experiment in a line: Binding affinity to AF9 in human MOLM-13 cells assessed as thermal stabilization of protein at 55 degree Celsius for 12 hrs by CETSA. The format is cell-based. The note with it: dose <= 4.0 µM, DDE = dose-dependent effect.

Assay [10] deals with MOLM-13. Description: Down regulation of DCUN1D1 gene in human MOLM-13 cells by RNA-sequencing analysis. The format is functional, cell-based.
For assay [11], the system named is MOLM-13. Description: Inhibition of methylation of H3K79 in human MOLM-13 cells assessed as inhibition of methylation at HOXA13 gene cluster by chromatin immunoprecipitation assay. The format is functional, cell-based.
In a further assay the test system is RS4-11. The experiment in a line: Anticancer activity against human RS4-11 cells assessed as inhibition of cell growth treated for 8 days measured by CCK-8 kit method. Format: functional, cell-based. The note with it: RS4-11, 192 h.
The subject of assay [12] is MOLM-13. Description: Down regulation of GATA2 gene in human MOLM-13 cells by RNA-sequencing analysis. The format is functional, cell-based.
Assay [13] deals with MOLM-13. Description: Down regulation of RUNX1 gene in human MOLM-13 cells by RNA-sequencing analysis. Format: functional, cell-based.
The subject of assay [14] is MOLM-13. Description: Down regulation of HOXA9 gene in human MOLM-13 cells by RNA-sequencing analysis. Format: functional, cell-based.
Assay [15] deals with MOLM-13. The experiment in a line: cells. The note with it: Homo sapiens, MOLM-13, 144 h.
Description: Anticancer activity against human MOLM-13 cells harbouring MLL-AF9 assessed as inhibition of cell growth treated for 6 days measured by CCK-8 kit method
A further assay relates to MV4-11. The experiment in a line: Anticancer activity against human MV4-11 cells assessed as inhibition of cell growth treated for 8 days measured by CCK-8 kit method. The note with it: MV4-11, 192 h. The format is functional, cell-based.
For assay [16], the system named is MOLM-13. The experiment in a line: Down regulation of AC011043.1 gene in human MOLM-13 cells by RNA-sequencing analysis. Format: functional, cell-based.
Assay [17] has as its system MOLM-13. Description: Induction of apoptosis in human MOLM-13 cells at 0.25 to 1 uM assessed as cleaved PARP by Annexin V-FITC/PI staining based flow cytometry analysis. The format is functional, cell-based. The note with it: dose 0.25-1 µM. In general terms: A flow cytometer gives signals particle by particle.
Assay [18] deals with MOLM-13. The experiment in a line: Down regulation of HOXA11 gene in human MOLM-13 cells by RNA-sequencing analysis. The format is functional, cell-based.

Structures are written as SMILES. Activity calls are given as the source filed them. The calls are words filed in the database; no cut-off is given here. Non-standard residues stand in square brackets, D forms with d. Residues, ends and D or L forms follow the SMILES beside them. *: point of attachment. X1 = C[C@H](N*)c1nc2cccc(-c3ccccc3)c2[nH]1; Ala(cPent) = N[C@@H](CC1CCCC1)C(=O)O; Pentanoyl(4-Me) = CC(C)CCC(=O)*; Dap(Me) = CNC[C@H](N)C(=O)O

Usually IC50 stands for the concentration at which inhibition is half-maximal. In the case of `CNC[C@H](NC(=O)[C@@H](NC(=O)[C@@H]1CCCN1C(=O)CCC(C)C)C(C)C)C(=O)N[C@@H](CC1CCCC1)C(=O)N[C@@H](C)c1nc2cccc(-c3ccccc3)c2[nH]1` ({Pentanoyl(4-Me)}-PV[Dap(Me)][Ala(cPent)]-X1), the result with MOLM-13 [1], in the assay with MOLM-13 [2], in the assay on MOLM-13 [3], with MOLM-13 [6], with MOLM-13 [10] and in the assay on MOLM-13 [12] was Active. The result in the assay with MOLM-13 [13], in the assay on MOLM-13 [14], in the assay on MOLM-13 [16], with MOLM-13 [17] and in the assay with MOLM-13 [18] was Active. The inhibition entry in the assay on MOLM-13 [4], in the assay with MOLM-13 [7] and in the assay on MOLM-13 [11] was “Active” in each case. Also, the IC50 is 972 nM in the assay with MOLM-13 [5]; 59000 nM in the assay on K562; 240 nM in the assay on RS4-11; 382 nM in the assay with MOLM-13 [15]; 220 nM with MV4-11. For the same molecule, the results for the Activity entry (in the assay on MOLM-13 [8]; in [9]) were “Tde” and “Dde”, respectively.
